Laboratory results as given in patent US20080207632A1, “PROTEIN KINASE INHIBITORS” (SUPERGEN, INC., priority 2006, published 2008).
Each block holds one compound with its values, some of them ahead of it.

What was measured:
aurora-2 kinase = target: T1, aurora-2 kinase (Homo sapiens, UniProt O14965); assay: aurora-2 kinase inhibition assay (Kinase-Glo, ATP remaining); assay type: biochemical; conditions: Example 54, Table 8; 3 μM ATP; read-out: Aurora-2 Inhibition, IC50
T1 construct: purchased Upstate, Lake Placid, N.Y; host or cells: sf9 cells
T1 sequence (O14965 1-403): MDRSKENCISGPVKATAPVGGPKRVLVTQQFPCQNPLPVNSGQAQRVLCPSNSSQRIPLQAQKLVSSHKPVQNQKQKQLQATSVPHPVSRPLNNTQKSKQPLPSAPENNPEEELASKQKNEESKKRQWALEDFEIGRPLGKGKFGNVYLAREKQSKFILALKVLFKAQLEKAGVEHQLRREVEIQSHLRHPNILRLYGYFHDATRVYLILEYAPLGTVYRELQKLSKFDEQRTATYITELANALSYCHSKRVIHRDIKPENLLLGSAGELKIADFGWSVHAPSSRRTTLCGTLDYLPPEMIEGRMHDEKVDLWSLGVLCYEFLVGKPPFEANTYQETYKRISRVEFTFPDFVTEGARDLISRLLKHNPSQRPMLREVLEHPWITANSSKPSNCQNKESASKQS
Protocol: (§1) In this assay kinase activity was determined by quantifying the amount of ATP remaining in solution following a kinase reaction by measuring the light units (LU) produced by luciferase using a luminometer. Percent inhibition was determined for individual compounds by comparing luminometer readings of drug-treated reactions to controls containing no drug (DMSO control) and no Aurora-2 enzyme (ATP control) in the following equation: […]
(§2) In a 50 μl reaction, recombinant aurora-2 kinase produced in sf9 cells (Upstate, Lake Placid, N.Y.) was incubated at 30° C. for two hours with 62.5 μM Kemptide (Calbiochem, San Diego, Calif.), 3 μM ATP (Invitrogen, Carlsbad, Calif.) and kinase reaction buffer (40 mM Tris-HCl, 10 mM MgCl2 and 0.1 μg/μl bovine serum albumin (BSA)). This reaction was carried out in the presence of drug substances, which had been previously diluted to desired concentrations in DMSO. After incubation, 50 μl of Kinase-Glo® (Promega, Inc., Madison, Wis.) solution was added to each reaction mixture and allowed to equilibrate for 10 minutes at room temperature. Kinase-Glo solution contains luciferase enzyme and luciferin, which react with ATP to produce light. Kinase activity is determined by quantifying the amount of ATP remaining in solution following the kinase reaction by measuring the light units (LU) produced by luciferase using a luminometer (Thermo-Electron, Vantaa, Finland).
as §1, with “Briefly,” for “In this assay”
as §2, with “μg/Il” for “μg/μl”
as §1, with “Illustrative compounds 2-3, 2-5, 2-7, 2-4 and 2-9 were evaluated in an aurora-2 kinase inhibition assay. In” for “In”

[1] = tested on: MDA-MB-231 breast carcinoma cells; assay: cell proliferation assay (Cell-Titer-Glo), MDA-MB-231; assay type: cell-based; conditions: Homo sapiens, Example 65, 96 hours, read-out: IC50 (reduce cell number to 50% of untreated controls)
Protocol: Cell culture-based assays can be used to evaluate the ability of compounds of the invention to inhibit one or more cellular activities, such as cancer cell growth and/or survival. Numerous cancer cell lines can be obtained from the American Type Culture Collection (ATCC) and other sources. Briefly, cells are seeded into 96-well, tissue-culture treated, opaque white plates (Thermo Electron, Vantaa, Finland), at between 5000 and 10000 cells per well, depending on the speed of cell proliferation, in 100 μl of appropriate growth medium (determined by the ATCC). Cells are then exposed to the appropriate concentration of drug or an equal amount of DMSO (drug diluent) and allowed to grow in its presence for 96 hours. Following this, 100 μl of Cell-Titer-Glo reagent (Promega, Inc., Madison, Wis.) is added to each well. Plates are then shaken for 2 minutes at room temperature to allow for cell lysis and incubated for 10 minutes to stabilize the luminescent signal. Similar to the Kinase-Glo assay reagent from Promega, this reagent contains both luciferase enzyme and its substrate luciferin. Luciferase, activated by ATP in the cell lysate, catalyzes the conversion of luciferin to oxyluciferin, a reaction which produces light. The amount of light produced is proportionate to the amount of ATP in the cell lysate, which is itself proportional to cell number and gives an index of cellular proliferation.
Compound 1-1 and Compound 2-11 were tested in a cell proliferation assay to determine potency in a cell-based assay format. Briefly, MDA-MB-231 breast carcinoma cells were inoculated onto 96-well plates and incubated in the presence of compounds for 96 hours. Following incubation, cells were lysed and ATP content used as a surrogate for cell number, using the Cell-Titer-Glo Luminescent Cell Viability Assay Kit (Promega Corp.). IC50 values, representing the concentration required to reduce cell number to 50% of untreated controls, were determined to be 20 uM for Compound 1-1 and 10 uM for Compound 2-11.

[2] = target: T2, phosphorylated Axl in MDA-MB-231 breast carcinoma cells (Homo sapiens, UniProt P30530); assay: Axl autophosphorylation sandwich ELISA in cells; assay type: cell-based; conditions: 10 uM, 48 hours
T2 construct: endogenous in cells; host or cells: MDA-MB-231 breast carcinoma cells
T2 sequence (P30530 26-894): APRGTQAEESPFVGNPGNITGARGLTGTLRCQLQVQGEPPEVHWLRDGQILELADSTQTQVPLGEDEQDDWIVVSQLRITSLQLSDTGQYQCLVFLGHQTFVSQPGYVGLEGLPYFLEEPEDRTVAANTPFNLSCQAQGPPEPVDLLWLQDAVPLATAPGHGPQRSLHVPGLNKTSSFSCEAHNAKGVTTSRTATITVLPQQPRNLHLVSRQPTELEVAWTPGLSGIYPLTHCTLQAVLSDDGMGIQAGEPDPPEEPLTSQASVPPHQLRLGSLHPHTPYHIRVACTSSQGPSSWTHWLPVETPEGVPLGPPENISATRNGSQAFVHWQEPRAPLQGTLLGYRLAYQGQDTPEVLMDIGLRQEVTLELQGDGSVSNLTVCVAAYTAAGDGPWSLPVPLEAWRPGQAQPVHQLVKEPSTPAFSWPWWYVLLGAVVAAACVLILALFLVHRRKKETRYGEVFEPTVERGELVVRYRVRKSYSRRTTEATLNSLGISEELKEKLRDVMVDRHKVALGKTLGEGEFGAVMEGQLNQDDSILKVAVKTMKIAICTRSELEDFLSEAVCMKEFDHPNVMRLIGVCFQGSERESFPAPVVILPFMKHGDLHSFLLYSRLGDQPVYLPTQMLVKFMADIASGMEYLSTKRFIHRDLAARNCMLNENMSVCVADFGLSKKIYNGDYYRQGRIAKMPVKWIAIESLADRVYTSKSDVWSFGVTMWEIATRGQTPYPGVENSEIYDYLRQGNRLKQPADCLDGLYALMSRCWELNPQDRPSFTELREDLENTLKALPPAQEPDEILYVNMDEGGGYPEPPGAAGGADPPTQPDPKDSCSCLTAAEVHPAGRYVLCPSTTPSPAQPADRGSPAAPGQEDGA
Protocol: Compound 2-11 was examined in a cell-based assay to determine its ability to reduce the activity of the Axl kinase enzyme in cell culture. Axl, like many receptor tyrosine kinases, autophosphorylates in response to growth factor stimulation. Briefly, MDA-MB-231 breast carcinoma cells were plated in 25 cm^2 tissue culture flasks and incubated in the presence of varying concentrations of Compound 2-11 for 48 hours. Following incubation, cells were lysed and the presence of phosphorylated Axl was detected using a commercially available sandwich ELISA assay kit (R&D Systems Inc.). […] For example, at concentrations as low as 10 uM, levels of phosphorylated Axl were reduced to less than 50% of those observed for untreated control samples.

[3] = tested on: Granta-4 lymphoma cell line; assay: lymphoma cell number reduction, Granta-4; assay type: cell-based; conditions: 48 hours; read-out: IC50 Values Granta-4, single agent
Protocol: (§3) New IC50 values were calculated for the second agent in an effort to determine whether or not pretreatment with one compound would increase sensitivity to the other. As set forth in the table below, compound 2-3 pretreatment led to an increased sensitivity to Taxol®, however Taxol® pretreatment appeared to be […] to compound 2-3 in this assay.

[4] = tested on: Granta-22 lymphoma cell line; assay: lymphoma cell number reduction, Granta-22; assay type: cell-based; conditions: 48 hours; read-out: IC50 Values Granta-22, single agent
Protocol: as §3

- IC50 (aurora-2 kinase): 153 nM
SMILES: COc1cc2[nH]c3ncnc(N4CCN(C(=S)Nc5ccc(S(=O)(=O)Nc6ccc(C(F)(F)F)cc6)cc5)CC4)c3c2cc1OC [Compound 2-4, 4-(6,7-dimethoxy-9H-pyrimido[4,5-b]indol-4-yl)-N-(4-(N-(4-trifluoronethylhenyl)sulfamoyl)phenyl)piperazine-1-carbothioamide]

- IC50 [1]: 10000 nM
- levels of phosphorylated Axl relative to untreated control samples [2]: less than 50%
SMILES: CCc1nnc(NS(=O)(=O)c2ccc(NC(=S)N3CCN(c4ncnc5[nH]c6ccc(Cl)cc6c45)CC3)cc2)s1 [Compound 2-11]

- IC50 [3]: 301 nM
- IC50 [4]: 2720 nM
SMILES: CC(=O)O[C@H]1C(=O)[C@@]2(C)[C@H]([C@H](OC(=O)c3ccccc3)[C@]3(O)C[C@H](OC(=O)[C@H](O)[C@@H](NC(=O)c4ccccc4)c4ccccc4)C(C)=C1C3(C)C)[C@]1(OC(C)=O)CO[C@@H]1C[C@@H]2O [Taxol ®, reference compound]
